Measured values: patent US20250340671A1, “METHODS AND PHARMACEUTICAL COMPOSITIONS FOR REDUCING THE NEURO[…] OF COCAINE” (University of Cincinnati, priority 2022, published 2025)

Key:
[1] = in vivo; cited from earlier work
[2] = system: lever-pressing behavior in rats; assay: Single-dose reinstatement (SDR) of lever-pressing after 12 μmol/kg cocaine; assay type: in vivo, Male Sprague-Dawley rats; details: for average difference in latency between vehicle and SCH23390: 10 nmol/kg SCH23390 alone, absence of h2E2; for mean latency of lever-pressing behavior: 0 nmol/kg gave 17.11, FIG. 6; for mean duration of lever-pressing: 0 nmol/kg gave 35.44, FIG. 7

Compound: CN1CCc2cc(Cl)c(O)cc2[C@@H](c2ccccc2)C1 [SCH23390]
- t-max [1]: approximately 30 min
- average difference in latency between vehicle and SCH23390 ([2]; FIG. 9): about 2.81 minutes
- average difference in latency between vehicle and SCH23390 ([2]; FIG. 9, listed as SCH233390): 2.81 min
- average duration of lever-pressing activity ([2]; 10 nmol/kg SCH23390 before SDR, in the presence of h2E2 (4 separate days from day seven after h2E2), FIG. 10): 9.28 min
- average decrease in latency versus the prior day (h2E2 alone) ([2]; 10 nmol/kg SCH23390 before SDR, in the presence of h2E2 (from seven days after 360 umol/kg h2E2), FIG. 9): 2.56 min
- mean latency of lever-pressing behavior ([2]; SCH23390 alone 10 nmol/kg IV before 12 μmol/kg cocaine SDR): 12.17
- mean duration of lever-pressing ([2]; SCH23390 alone 10 nmol/kg): 23.16
- mean latency of lever-pressing behavior ([2]; SCH23390 alone 20 nmol/kg IV before 12 μmol/kg cocaine SDR): 5.17
- mean duration of lever-pressing ([2]; SCH23390 alone 20 nmol/kg): 5.43
- mean latency of lever-pressing behavior ([2]; SCH23390 alone 30 nmol/kg IV before 12 μmol/kg cocaine SDR): 1.72
- mean duration of lever-pressing ([2]; SCH23390 alone 30 nmol/kg): 2.05
- average latency ([2]; days with 10 nmol/kg SCH23390 in the presence of h2E2, FIG. 8): 9.93 min
